Assays:
Human recombinant IDO1 = Human recombinant IDO1 (Homo sapiens (Human), UniProt P14902); test: IDO1 enzymatic assay (UV absorption at 321 nm); assay type: biochemical; settings: human recombinant IDO1, 80 min incubation, room temperature; read-out: hIDO1 IC50
Experimental: The detailed experimental method is as follow:
The compounds described in this disclosure were dissolved in 10% DMSO to predefined concentration. All of the reactions were conducted at room temperature in this disclosure. Human recombinant IDO1 (BPS Bioscience) was added so that its concentration was 200 nm in the reaction buffer solution (200 μL). […] 10 μL test compound solution was added into the above reaction solution (200 μL), so that the final concentration of DMSO in all reaction wells was 0.5%. % concentration was volume %. After 80 min incubation of the reaction solution, the UV absorbance was measured using TECAN Infinite M1000 plate reader. For the negative control (blank), 10 μl of the assay buffer was added instead of the IDO1
All reagents (excluding human recombinant IDO1) were purchased from Sigma Aldrich, MO, USA.
The percent activity in the presence of each compound was calculated according to the following equation: % activity=[(A−Ab)/(At−Ab)]×100, where A=the absorption signal in the presence of the compound, Ab=the absorption signal of blank, At=the absorption signal in the absence of the compound. […] The IC50 was calculated using non-linear regression in Graph Pad Prism® 4.

HeLa cell IDO1 = HeLa cell IDO1 (Homo sapiens (Human), UniProt P14902); test: HeLa cell based IDO1 inhibition assay (kynurenine readout, IFN-γ induced); settings: HeLa cells
Experimental: HeLa cell line was purchased from ATCC, cultured in MEM/EBSS medium supplemented with 10% FBS, penn-step (100,000 U/L), non-essential amino acid (0.1 Mm), sodium pyruvate (1.0 Mm). Cells were cultured at 37° C., 95% humidity and 5% CO2. […] The detailed experimental method is as follow:
25,000 HeLa cells were placed on 96-well plates. Each well contained 100 μl culture medium, subsequently IFN-γ and test compounds at specific concentrations (concentration range between 10 μM and 1 Nm, so that the final volume of culture medium was 200 μL) were added and IFN-γ was used to induce IDO1 expression. After incubation, 140 μL supernatant was transferred to 96-well plates. After adding 6.1 N TCA (10 μL), the plates were continuously incubated at 50° C. for 30 min, to hydrolyze N-formylkynurenine produced by IDO to kynurenine. The reaction solution was then centrifuged at 2500 rpm for 10 min to remove precipitate. 100 μL/well supernatant was then transferred to another 96-well plate. 100 μL of 2% (w/v) 4-N,N-dimethyl aminobenzaldehyde acetic acid solution was added and incubated at room temperature for 10 min. The yellow color derived from kynurenine was recorded by measuring absorbance at 480 nm using a microplate reader (TECAN Infinite M1000 Pro).

HeLa cell based IDO1 = HeLa cell based IDO1 (Homo sapiens (Human), UniProt P14902); test: Three-point IDO1 cellular assay (HeLa, 10, 100 and 1000 nM); settings: HeLa cells, 100 ng/mL IFN-γ, 18 hours; for inhibition at 1 µM: at 1000 nM
Experimental: To perform the 3-point HeLa cell based IDO1 assay, HeLa cells were seeded at 25,000 cells per well into 96-well microplate in 100 μL of growth medium. Cells were incubated at 37° C. and 5% CO2 overnight. The next day 100 μL per well of diluted inhibitor in growth medium at 10, 100 and 1000 nM, respectively, was added at a final concentration of 100 ng/ML human IFN-γ. Cells were incubated at 37° C. in a CO2 incubator for 18 hours. […] The plate was incubated at 50° C. for 30 min to hydrolyze N-formylkynurenine produced by IDO1 to kynurenine. The plate was then centrifuged at 2500 rpm for 10 min to remove sediments. 100 μl of supernatant per well was transferred to another 96-well plate and mixed with 100 μL of 2% (w/v) 4-(Dimethylamino) benzaldehyde in acetic acid. The plate was incubated at room temperature for 10 minutes, the yellow color derived from kynurenine was recorded by measuring absorbance at 480 nm using a microplate reader (TECAN Infinite M1000 Pro). Cell based assays were performed in triplicate at each concentration. The absorbance data were analyzed using the computer software, Graphpad Prism. In the absence of the compound and presence of 100 ng/ML IFN-γ, the absorbance (At) in each data set was defined as 100%. The absorbance of medium blank (Ab) in each data set was defined as 0%. The percent absorbance in the presence of each compound was calculated according to the following equation: % Absorbance=(A−Ab)/(At−Ab), where A=the absorbance in the presence of the compound and IFN-γ, Ab=the absorbance of medium blank, and At=the absorbance in the absence of the compounds and presence of IFN-γ. The values of % absorbance versus the compound concentrations were then determined.

Sequence of Human recombinant IDO1 (P14902 whole entry): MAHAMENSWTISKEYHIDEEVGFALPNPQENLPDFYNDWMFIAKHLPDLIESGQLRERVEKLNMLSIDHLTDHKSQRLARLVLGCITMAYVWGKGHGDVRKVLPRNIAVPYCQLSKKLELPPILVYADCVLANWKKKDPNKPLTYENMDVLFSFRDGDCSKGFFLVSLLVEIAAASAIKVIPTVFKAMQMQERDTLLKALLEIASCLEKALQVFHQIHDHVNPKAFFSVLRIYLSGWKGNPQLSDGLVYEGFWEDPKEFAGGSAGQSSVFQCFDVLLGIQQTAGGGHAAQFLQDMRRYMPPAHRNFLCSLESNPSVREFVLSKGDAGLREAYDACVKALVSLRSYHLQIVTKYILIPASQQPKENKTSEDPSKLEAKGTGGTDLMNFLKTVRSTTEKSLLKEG
Sequence of HeLa cell based IDO1 (P14902 whole entry): as above
Sequence of HeLa cell IDO1 (P14902 whole entry): as above

Row | SMILES | IC50 (HeLa cell IDO1) | further results
1 | O=C(C[C@H]1c2ccccc2-c2cncn21)C12CC3CC(CC(C3)C1)C2 (single isomer, unassigned) [Compound 1-1] | – | IC50 (Human recombinant IDO1): 1000 to 10000 nM
2 | O=C(C[C@@H]1c2ccccc2-c2cncn21)C12CC3CC(CC(C3)C1)C2 (single isomer, unassigned) [Compound 1-4] | – | IC50 (Human recombinant IDO1): 1000 to 10000 nM
3 | O=S(=O)(NC1C2CC3CC1CC(C(O)CC1c4c(F)cccc4-c4cncn41)(C3)C2)c1ccccc1 (single isomer, unassigned) [Compound 47A] | < 100 nM | –
4 | O=S(=O)(NC1C2CC3CC1CC(C(O)CC1c4c(F)cccc4-c4cncn41)(C3)C2)c1ccccc1 (single isomer, unassigned) [Compound 47B] | < 100 nM | –
5 | O=C(Nc1ccccc1)NC1C2CC3CC1CC(C(O)CC1c4c(F)cccc4-c4cncn41)(C3)C2 (single isomer, unassigned) [Compound 55A] | < 100 nM | –
6 | O=C(Nc1ccccc1)NC1C2CC3CC1CC(C(O)CC1c4c(F)cccc4-c4cncn41)(C3)C2 (single isomer, unassigned) [Compound 55B] | 100 to 500 nM | –
7 | O=S(=O)(CC1CCC1)NC1C2CC3CC1CC(C(O)CC1c4c(F)cccc4-c4cncn41)(C3)C2 (single isomer, unassigned) [Compound 67B] | < 100 nM | –
8 | N#Cc1ccc(S(=O)(=O)NC2C3CC4CC2CC(C(O)CC2c5c(F)cccc5-c5cncn52)(C4)C3)cc1 (single isomer, unassigned) [Compound 69A] | < 100 nM | –
9 | N#Cc1ccc(S(=O)(=O)NC2C3CC4CC2CC(C(O)CC2c5c(F)cccc5-c5cncn52)(C4)C3)cc1 (single isomer, unassigned) [Compound 69B] | 500 to 1000 nM | –
10 | OC(CC1c2ccccc2-c2cncn21)C12CC3CC(C1)C(Nc1nc4ccccc4s1)C(C3)C2 (single isomer, unassigned) [Compound 125A] | < 100 nM | –
11 | OC(CC1c2ccccc2-c2cncn21)C12CC3CC(C1)C(Nc1nc4ccccc4s1)C(C3)C2 (single isomer, unassigned) [Compound 125B] | < 100 nM | –
12 | N#Cc1ccc(S(=O)(=O)NC23CC4CC(C2)C(C(O)CC2c5ccccc5-c5cncn52)C(C4)C3)cc1 (single isomer, unassigned) [Compound 165A] | < 100 nM | –
13 | N#Cc1ccc(S(=O)(=O)NC23CC4CC(C2)C(C(O)CC2c5ccccc5-c5cncn52)C(C4)C3)cc1 (single isomer, unassigned) [Compound 165B] | 500 to 1000 nM | –
14 | CS(=O)(=O)NC12CC3CC(C1)C(C(O)CC1c4ccccc4-c4cncn41)C(C3)C2 (single isomer, unassigned) [Compound 168A] | < 100 nM | –
15 | CS(=O)(=O)NC12CC3CC(C1)C(C(O)CC1c4ccccc4-c4cncn41)C(C3)C2 (single isomer, unassigned) [Compound 168B] | 1000 to 10000 nM | –
16 | OC1C2CC3CC1CC(C(O)CC1c4ccccc4-c4cncn41)(C3)C2 (stereo not shown) [Compound 10A-3] | – | IC50 (Human recombinant IDO1): 1000 to 10000 nM
17 | OC1C2CC3CC1CC([C@@H](O)CC1c4ccccc4-c4cncn41)(C3)C2 (stereo partly shown) [Compound 10B] | – | IC50 (Human recombinant IDO1): 100 to 500 nM
18 | CC1(O)C2CC3CC1CC(C(O)CC1c4ccccc4-c4cncn41)(C3)C2 (stereo not shown) [Compound 11A] | < 100 nM | –
19 | CC1(O)C2CC3CC1CC([C@@H](O)CC1c4ccccc4-c4cncn41)(C3)C2 (stereo partly shown) [Compound 14A-1] | – | IC50 (Human recombinant IDO1): 1000 to 10000 nM
20 | OC1C2CC3CC1CC([C@H](O)CC1c4c(F)cccc4-c4cncn41)(C3)C2 (stereo partly shown) [Compound 23A-2] | – | IC50 (Human recombinant IDO1): 1000 to 10000 nM
21 | OC1C2CC3CC1CC([C@@H](O)CC1c4c(F)cccc4-c4cncn41)(C3)C2 (stereo partly shown) [Compound 23A-4] | – | IC50 (Human recombinant IDO1): 1000 to 10000 nM
22 | OC1C2CC3CC1CC([C@@H](O)CC1c4c(F)cccc4-c4cncn41)(C3)C2 (stereo partly shown) [Compound 26A-2] | – | IC50 (Human recombinant IDO1): 1000 to 10000 nM
23 | OC1C2CC3CC1CC([C@@H](O)CC1c4c(F)cccc4-c4cncn41)(C3)C2 (stereo partly shown) [Compound 26B] | – | IC50 (Human recombinant IDO1): 100 to 500 nM

Row | SMILES | IC50 (HeLa cell IDO1) | further results
24 | OC(Cn1c2ccccc2n2cncc12)C12CC3CC(CC(C3)C1)C2 (stereo not shown) [Compound 40] | – | IC50 (Human recombinant IDO1): 1000 to 10000 nM
25 | CCS(=O)(=O)NC1C2CC3CC1CC(C(O)CC1c4c(F)cccc4-c4cncn41)(C3)C2 (stereo not shown) [Compound 66] | < 100 nM | –
26 | O=S(=O)(Cc1ccc(F)cc1)NC1C2CC3CC1CC(C(O)CC1c4c(F)cccc4-c4cncn41)(C3)C2 (stereo not shown) [Compound 71] | < 100 nM | –
27 | O=S(=O)(NC1C2CC3CC1CC(C(O)CC1c4c(F)cccc4-c4cncn41)(C3)C2)C1CC1 (stereo not shown) [Compound 81A] | < 100 nM | –
28 | CS(=O)(=O)Nc1ccc(S(=O)(=O)NC2C3CC4CC2CC(C(O)CC2c5c(F)cccc5-c5cncn52)(C4)C3)cc1 (stereo not shown) [Compound 87] | 500 to 1000 nM | –
29 | O=C(Nc1ccc(F)cc1)NC1C2CC3CC1CC(C(O)CC1c4c(F)cccc4-c4cncn41)(C3)C2 (stereo not shown) [Compound 93A] | < 100 nM | –
30 | Cc1ccc(NC(=O)NC2C3CC4CC2CC(C(O)CC2c5c(F)cccc5-c5cncn52)(C4)C3)cc1 (stereo not shown) [Compound 97] | < 100 nM | –
31 | N#Cc1ccc(NC(=O)NC2C3CC4CC2CC(C(O)CC2c5c(F)cccc5-c5cncn52)(C4)C3)cc1 (stereo not shown) [Compound 100] | < 100 nM | –
32 | CS(=O)(=O)c1ccc(NC(=O)NC2C3CC4CC2CC(C(O)CC2c5c(F)cccc5-c5cncn52)(C4)C3)cc1 (stereo not shown) [Compound 101] | 100 to 500 nM | –
33 | CC(=O)Nc1ccc(NC(=O)NC2C3CC4CC2CC(C(O)CC2c5ccccc5-c5cncn52)(C4)C3)cc1 (stereo not shown) [Compound 102] | 1000 to 10000 nM | –
34 | O=C(Nc1ccc(F)c(F)c1)NC1C2CC3CC1CC(C(O)CC1c4c(F)cccc4-c4cncn41)(C3)C2 (stereo not shown) [Compound 108A] | < 100 nM | –
35 | OC(CC1c2ccccc2-c2cncn21)C12CC3CC(C1)C(Nc1nc4ccccc4o1)C(C3)C2 (stereo not shown) [Compound 123] | < 100 nM | –
36 | OC(CC1c2c(F)cccc2-c2cncn21)C12CC3CC(C1)C(Nc1nc4ccccc4o1)C(C3)C2 (stereo not shown) [Compound 124A] | < 100 nM | –
37 | O=C(Nc1ccccc1)NC12CC3CC(C1)C(C(O)CC1c4ccccc4-c4cncn41)C(C3)C2 (stereo not shown) [Compound 162A] | 100 to 500 nM | –
38 | CCS(=O)(=O)NC12CC3CC(C1)C(C(O)CC1c4ccccc4-c4cncn41)C(C3)C2 (stereo not shown) [Compound 167A] | 100 to 500 nM | –
39 | Cc1ccc(CC(=O)NC23CC4CC(C2)C(C(O)CC2c5c(F)cccc5-c5cncn52)C(C4)C3)cc1 (stereo not shown) [Compound 193A] | – | inhibition at 0.1 µM (HeLa cell based IDO1; at 100 nM): > 50%
40 | CC(=O)Nc1ccc(S(=O)(=O)NC23CC4CC(C2)C(C(O)CC2c5ccccc5-c5cncn52)C(C4)C3)cc1 (stereo not shown) [Compound 201A] | – | inhibition at 1 µM (HeLa cell based IDO1): > 50%
41 | O=S(=O)(Cc1ccccc1)N1C2CC3CC1CC(C(O)CC1c4c(F)cccc4-c4cncn41)(C3)C2 (stereo not shown) [Compound 205] | – | inhibition at 1 µM (HeLa cell based IDO1): > 50%
42 | O=S(=O)(c1ccccc1)N1C2CC3CC1CC(C(O)CC1c4c(F)cccc4-c4cncn41)(C3)C2 (stereo not shown) [Compound 206] | – | inhibition at 1 µM (HeLa cell based IDO1): > 50%
43 | O=C(Cc1ccc(F)cc1)N1C2CC3CC1CC(C(O)CC1c4c(F)cccc4-c4cncn41)(C3)C2 (stereo not shown) [Compound 207] | – | inhibition at 1 µM (HeLa cell based IDO1): > 50%
44 | O=C(Nc1ccccc1)N1C2CC3CC1CC(C(O)CC1c4c(F)cccc4-c4cncn41)(C3)C2 (stereo not shown) [Compound 208] | < 100 nM | –
45 | OC(CC1c2c(F)cccc2-c2cncn21)C12CC3CC(C1)N(c1ncc(-c4ccccc4)o1)C(C3)C2 (stereo not shown) [Compound 210] | – | inhibition at 1 µM (HeLa cell based IDO1): > 50%
46 | OC(CC1c2cccnc2-c2cncn21)C1CCCCC1 (stereo not shown) [compound 2] | – | IC50 (Human recombinant IDO1): 1000 to 10000 nM

— patent publication US10202388B2, “Fused-ring compounds, pharmaceutical composition and uses thereof” (SHANGHAI DE NOVO PHARMATECH CO., LTD., priority 2015, dated 2019)
